Legend:
PI3Kα = PI3Kα (Homo sapiens (Human), UniProt P42336); assay: Inhibition on PI3K kinase activity (Kinase-Glo Plus luminescent assay); type: biochemical; conditions: 2 μM ATP, 1 hour at room temperature
Protocol: The activity of purified kinase was detected with Kinase-Glo® Plus kinase luminescent assay by measuring the amount of the remaining […] in the solution after the kinase reaction was completed. […] After reaction was performed for 1 hour at room temperature, 10 μL of Kinase Glo-Plus mixture was added and incubated for 1 hour to quench the reaction.

[1] = test system: human esophagus cancer KYSE 410 xenograft; assay: Growth of KYSE 410 xenograft subcutaneously transplanted in nude mouse; type: in vivo; conditions: for Relative tumor proliferation rate T/C: 50 mg/kg p.o. once every day
Protocol: Well-developed tumors in nude mice were cut into 1.5 mm3 fragments and transplanted s.c. into the right flank of nude mice under sterile conditions. The diameters of subcutaneously transplanted tumours in nude mice were measured with a vernier calipe. When the tumour reached a volume 170 mm3, the mice were randomly assigned into two treatment groups: CYH33 50 mg/kg group or BYL-719 50 mg/kg group. Control groups were given the same amount of normal saline, and treatment groups received tested compounds (p.o). Compounds were administered orally once every day for 3 weeks. Evaluation index of antitumor activity was relative tumor proliferation rate T/C (%), the calculation formula of which was as follows: T/C (%)=(TRTV/CRTV)×100%, TRTV:RTV of treatment group; CRTV:RTV of negative control group.

[2] = test system: human rhabdomyosarcoma Rh30 cells; assay: Proliferation of Rh30 cells (sulforhodamine B); type: cell-based; conditions: Homo sapiens, Rh30, 72 h; read-out: IC50 against proliferation of Rh30 cells
Outline: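 Rh30 cells (3000/well) were treated after adherence with compound at 10, 3, 1, 0.3 or 0.1 μM for 72 h. TCA-fixed cells were stained with sulforhodamine B, dye solubilised in Tris buffer and OD read at 560 nm.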

Sequence of PI3Kα (P42336 whole entry): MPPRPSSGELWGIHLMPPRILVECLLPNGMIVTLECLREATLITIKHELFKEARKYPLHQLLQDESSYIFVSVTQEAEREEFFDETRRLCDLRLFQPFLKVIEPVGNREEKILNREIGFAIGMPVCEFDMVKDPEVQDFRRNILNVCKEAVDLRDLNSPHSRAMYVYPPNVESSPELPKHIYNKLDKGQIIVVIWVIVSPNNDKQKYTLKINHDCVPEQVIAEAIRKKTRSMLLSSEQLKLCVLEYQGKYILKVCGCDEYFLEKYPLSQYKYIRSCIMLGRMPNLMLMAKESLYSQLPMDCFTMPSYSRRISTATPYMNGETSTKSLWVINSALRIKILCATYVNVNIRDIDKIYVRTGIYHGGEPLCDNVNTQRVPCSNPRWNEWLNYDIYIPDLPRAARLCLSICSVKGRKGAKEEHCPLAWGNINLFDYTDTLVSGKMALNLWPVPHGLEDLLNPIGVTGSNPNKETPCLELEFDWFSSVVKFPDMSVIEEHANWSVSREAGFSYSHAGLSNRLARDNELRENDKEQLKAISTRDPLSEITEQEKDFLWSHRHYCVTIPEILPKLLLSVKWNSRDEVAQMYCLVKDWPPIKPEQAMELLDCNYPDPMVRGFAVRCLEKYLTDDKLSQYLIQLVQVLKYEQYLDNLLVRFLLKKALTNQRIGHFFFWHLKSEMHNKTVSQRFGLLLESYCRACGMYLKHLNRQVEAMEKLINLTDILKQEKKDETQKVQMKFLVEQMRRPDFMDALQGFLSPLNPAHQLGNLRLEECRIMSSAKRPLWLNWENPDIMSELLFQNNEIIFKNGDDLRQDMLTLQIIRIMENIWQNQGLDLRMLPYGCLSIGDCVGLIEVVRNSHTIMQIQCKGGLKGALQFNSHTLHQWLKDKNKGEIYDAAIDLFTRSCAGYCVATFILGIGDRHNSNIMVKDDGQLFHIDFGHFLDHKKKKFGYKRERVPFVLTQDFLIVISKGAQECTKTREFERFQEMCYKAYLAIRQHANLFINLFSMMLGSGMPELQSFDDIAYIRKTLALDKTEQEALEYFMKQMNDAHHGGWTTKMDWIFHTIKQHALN
Sequence of PI3Kα (P27986 whole entry partner): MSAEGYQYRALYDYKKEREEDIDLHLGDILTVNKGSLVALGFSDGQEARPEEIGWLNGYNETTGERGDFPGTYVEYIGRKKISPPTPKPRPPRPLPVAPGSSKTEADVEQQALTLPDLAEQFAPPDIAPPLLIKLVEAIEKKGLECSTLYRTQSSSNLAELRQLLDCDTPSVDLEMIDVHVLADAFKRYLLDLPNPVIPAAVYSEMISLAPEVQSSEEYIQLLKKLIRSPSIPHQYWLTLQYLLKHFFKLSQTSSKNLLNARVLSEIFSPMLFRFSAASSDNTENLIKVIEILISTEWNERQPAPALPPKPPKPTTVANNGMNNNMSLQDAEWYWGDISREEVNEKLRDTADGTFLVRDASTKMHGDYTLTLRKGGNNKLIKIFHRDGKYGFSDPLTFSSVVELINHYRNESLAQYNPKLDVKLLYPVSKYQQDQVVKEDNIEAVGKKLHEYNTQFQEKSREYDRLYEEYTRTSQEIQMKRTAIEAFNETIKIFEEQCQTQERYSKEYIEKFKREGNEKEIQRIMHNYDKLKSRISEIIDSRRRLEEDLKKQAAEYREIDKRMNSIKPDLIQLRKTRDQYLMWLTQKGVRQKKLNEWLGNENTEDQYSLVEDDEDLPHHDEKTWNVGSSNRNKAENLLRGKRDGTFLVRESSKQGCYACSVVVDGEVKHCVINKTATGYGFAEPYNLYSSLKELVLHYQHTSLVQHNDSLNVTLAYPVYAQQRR

- IC50 (PI3Kα): 2.84 nM
- IC50 [2]: 2520 nM
SMILES: COC(=O)Nc1cc(C(F)(F)F)c(-c2nc(N3CCOCC3)c3cc(CN4CCN(S(C)(=O)=O)CC4)cn3n2)cn1 [Compound I-33, Methyl (5-(6-((4-(methylsulfonyl)piperazin-1-yl)methyl)-4-morpholinopyrrolo[2,1-f][1,2,4]triazin-2-yl)-4-(trifluoromethyl)pyridin-2-yl)carbamate]
- growth of KYSE 410 xenograft (in words) ([1]; 50 mg/kg p.o. every day for 3 weeks): significantly slowed down
- Relative tumor proliferation rate T/C ([1]; d0): 100.00%
- Relative tumor proliferation rate T/C ([1]; d3): 65.56%
- Relative tumor proliferation rate T/C ([1]; d7): 30.11%
- Relative tumor proliferation rate T/C ([1]; d10): 25.23%
- Relative tumor proliferation rate T/C ([1]; d14): 13.79%
- Relative tumor proliferation rate T/C ([1]; d17): 10.51%
- Relative tumor proliferation rate T/C ([1]; d21): 9.13%
